Measured values: patent US20250223559A1, “AXIOLOID: A STEM CELL-BASED MODEL OF HUMAN AXIAL DEVELOPMENT” (KYOTO UNIVERSITY, priority 2022, published 2025)

Test system: human Axioloids
Assay: Axioloid morphogenesis during Matrigel embedding phase (brightfield live imaging, length, segment and somite quantification)
Assay type: cell-based
Details: added during MG embedding phase 72 h-120 h (RA 100 nM, ROL 10 μM, RAL 1 μM); 96 h and 120 h
Method: Human iPS cells were seeded on iMatrix-511 silk (Nippi) coated dishes at a density of 1.3×10^4 cells/well into 6 well plates 5 days prior to Axioloid induction and used at 60% confluency. All subsequent induction steps were performed in AK02N (Reprocell) medium without component C (AK02N-C). Initially, hiPSCs were pulsed with a strong mesoderm and primitive streak fate inducing combination of bFGF (20 ng ml-1) and WNT agonist CHIR99021 (5 μM) for 24 h. CHIR99021 concentration may need to be adjusted depending on the used iPSC line, but remains usually in the range of 3-5 μM. 24 h after the initial pulse, cells were dissociated with Accutase (Thermo Fisher Scientific) and cultured for 24 h in 96-well U-bottom low attachment plates (Sumilon) at 500 cells/well in 50 μl of AK02N—C based aggregation medium supplemented with CHIR99021 (5 μM), basic FGF (20 ng ml^1), TGFβ inhibitor SB431542 (10 μM) and ROCK inhibitor Y27632 (10 μM). 24 h after aggregation, 150 μl of AK02N-C medium was added into each well and exchanged again after 24 h with 150 μl of fresh AK02N-C medium. 48 h after aggregation Axioloids were transferred one-by-one into BSA-treated 96-well flat-bottom low attachment plates (Watson) and embedded into 80 μl of AK02N-C medium containing 10% growth factor-reduced Matrigel (Corning) and cultured further at 37° C. and 5% CO2 for 24 to 48 h. Depending on the experimental setup Retinoic Acid signaling molecules, i.e. Retinoic Acid (RA) (100 nM), Retinol (ROL) (10 μM) or all trans-Retinal (RAL) (1 μM) were added to the MG containing medium throughout the embedding phase. Small molecule inhibitors of FGF (PD173074 (250 nM)), WNT (XAV939 (2 μM)), RA (BMS493 (2.5 μM)) and Notch (DAPT (25 μM)) signaling were also added during the embedding phase and their effects on Axioloids assessed accordingly. For details of the used recombinant human proteins, small molecule agonists and inhibitors, please see Supplementary Table 1. […]
Periodicity of segmentation was quantified from brightfield live-cell imaging data obtained with an inverted Ti2 microscope system (Nikon) using PlanApo λ 10× objective. […]
Quantification of length or intensity based on imaging data was performed using Fiji^57. Rostrocaudal length of formed segments was quantified from a center plane in z-stack images of Phalloidin-stained Axioloids. The longitudinal axes of Axioloids were measured on bright field images using Segmented Line tool. For quantifying fluorescent intensity of HCR or IHC staining, first, maximum intensity z projection images were created from multi-channel z-stack confocal images, then intensity of each channel was quantified along the longitudinal axis of Axioloids by Segmented Line tool, with a line width which corresponds to approximately 80% of the lateral length of Axioloids. […]

With `CC1=C(/C=C/C(C)=C/C=C/C(C)=C/C=O)C(C)(C)CCC1` [RAL, all trans-Retinal] the “stability and epithelialization of forming segments” value was “dramatic improvement of the stability and epithelialization of forming segments”.
